# Measurements reported in patent US12257251B2, “Use of FAK inhibitor in preparation of drug for treating tumors having NRAS mutation” (INXMED (NANJING) CO., LTD., priority 2019, dated 2025).
# Assays:
# [1] = test system: human esophageal cancer cell line KYSE-270; test: Subcutaneous xenograft of human esophageal cancer cell line KYSE-270 in NMRI nude mice: tumor growth; format: in vivo, mouse; conditions: for Tumor shrinkage [x/y]: Paclitaxel 10 mg/Kg q7d
# Description: 1.1. Model: Subcutaneous xenograft of human esophageal cancer cell line KYSE-270 in NMRI nude mice.
# 1.3. Cells: KYSE-270 is an esophageal cancer cell line (Public Health England, catalog number: 94072021). Cells were cultured in T175 tissue culture flasks containing 5% CO2 at 37° C. The medium was RPMI 1640+HAM F12 (1:1) supplemented with 2% FCS and 2 mM Glutamax. Passage was performed three times a week at a ratio of 1:2.
# 1.4. Mice: Mice were 8 to 10 week old female mice (BomTac: NMRI-Foxn1^nu) purchased from Taconic®, Denmark. Upon arrival in the animal room, the mice were allowed to acclimate for at least 5 days before being used for assay. The animals were housed under standard conditions (temperature: 21.5±1.5° C., humidity: 55+10%), 7 to 10 mice for each group. A standard diet and autoclaved tap water were provided for ad libitum feeding. A subcutaneous microchip implanted under isoflurane anesthesia was used to identify each mouse.
# 1.5. Random establishment of tumors: To establish subcutaneous tumors, KYSE-270 cells were harvested by centrifugation, washed and resuspended in PBS+5% FCS at a concentration of 5×10^7 cells/ml. Then 100 l of cell suspension containing 5×10^6 cells was injected subcutaneously into the right flank of mice (1 site per mouse). When tumors were well established and reached a volume of 94 to 252 mm^3, mice were randomly assigned to the treatment group and the control group (13 days after cell injection).
# 1.6. Administration: BI 853520 was suspended in 0.5% hydroxyethyl cellulose, which was administered intragastrically through gavage needle every day, and the dosage was 10 mL/Kg body weight. Paclitaxel was dissolved in saline (0.9% NaCl), which was administered intravenously in a volume of 10 ml/kg body weight. The suspension of BI853520 could be used for up to 7 days. Paclitaxel solution was stored at 6° C. and used for up to 14 days.
# (§1) 1.7. Monitoring tumor growth and side effects: Tumor diameters were measured with calipers three times a week. The volume [mm^3] of each tumor was calculated according to the equation “tumor volume=length×diameter^2×π/6”. To monitor the side effects of the treatment, the mice were checked daily for abnormalities and their body weights were measured three times a week. For ethical reasons, animals with tumors larger than 1.5 cm in diameter, ulcerated tumors, or 20% body weight loss were euthanized.
# Statistical assessment of tumor volume and body weight on day 13 was performed. Animal number 1 (control group) was excluded from the statistical evaluation because of weight loss and had to be euthanized early (day 9). Measured tumor volume was used as the target variable in the statistical analysis. The number of animals and the median, minimum and maximum tumor volumes in each group were calculated. For a quick overview of possible treatment effects, the median tumor volume for each treatment group T and the median tumor volume for the control group C were used to calculate TGI: TGI=100×[(Cd−C1)−(Td−T1)]/(Cd−C1) • wherein, C1, T1=median tumor volume in control and treatment groups at the start of the assay (day 1). • Cd, Td=median tumor volume in control and treatment groups at the end of the assay (day 13).
# (§2) The wilcoxon test was used for comparison. For body weight, the percent change relative to initial body weight on day 1 was used as the target variable for statistical analysis. The number of animals, and the median, minimum and maximum weight changes in each group were calculated.
# (§3) One-sided test to compare all treatment groups with control group was performed for observing: • reduction in tumor volume (inhibition of tumor growth, efficacy parameter) and • reduction in weight changes (weight loss, tolerance parameters).
# Within each subtopic, p-values for the efficacy parameter were compared and adjusted for multiple times according to Bonferroni-Holm. The p-value for the tolerance parameter was kept constant so as not to overlook possible side effects. […]
# [2] = Body weight change (tolerability) in the KYSE-270 xenograft study; format: in vivo, mouse
# Description: as §1, §2, §3
# Within each subtopic, p-values for the efficacy parameter were compared and adjusted for multiple times according to Bonferroni-Holm. The p-value for the tolerance parameter was kept constant so as not to overlook possible side effects. Significance level was fixed at α=5%. A p-value (adjusted) of less than 0.05 was considered to show a statistically significant difference between groups, and 0.05≤p-value<0.10 was considered as an indicative difference. Statistical evaluations were performed using the SAS software package version 9.4 (SAS Institute Inc., Cary NC, USA).
structure (smiles),measurement,setting,value
"CC(=O)O[C@H]1C(=O)[C@@]2(C)[C@H]([C@H](OC(=O)c3ccccc3)[C@]3(O)C[C@H](OC(=O)[C@H](O)[C@@H](NC(=O)c4ccccc4)c4ccccc4)C(C)=C1C3(C)C)[C@]1(OC(C)=O)CO[C@@H]1C[C@@H]2O [Paclitaxel, reference compound]",Tumor shrinkage [x/y],[1]; day 13,0/7
same,Tumor shrinkage [x/y],"[1]; day 13, listed as paclitaxel",none
same,TGI,"[1]; Paclitaxel 10 mg/Kg q7d i.v., day 13",2%
same,Median tumor volume,"[1]; paclitaxel 10 mg/kg once a week, day 13 (start 190 mm^3)",1033 mm^3
same,Change in median weight,"[2]; Paclitaxel 10 mg/Kg q7d, day 13 versus day 1",−9.7%
same,Reduction in the median body weight,"[2]; Paclitaxel 10 mg/kg once a week, day 13, given as a decrease",9.7%
